In US20120046273A1, “COMPOUNDS AND COMPOSITIONS FOR COGNITION-ENHANCEMENT, METHODS OF MAKING, AND METHODS OF TREATING” (MITHRIDION, INC., priority 2009, published 2012):

Experiments:
[1] = test system: salivary gland inositol phosphate signaling pathway; assay: In vivo tissue inositol phosphate signaling pathway activation, salivary gland; parameters: species or system rat; details: for block of increase in salivary gland inositol phosphate caused by 82: 1 mg/kg of 82; for inhibition of salivary gland inositol phosphate response to MCD-386: 50 mg/kg MCD-386, antagonist 0.3 mg/kg
Method: (§1) Experimental compounds or drug substances were administered using standard techniques to Long Evans Hooded rats weighing 225 to 350 grams, and which had been pretreated with a subcutaneous injection of lithium chloride at a suitable dose between 3 and 10 mmoles per kg. At suitable times the animals were briefly anesthetized using 5% isoflurane and euthanized by decapitation. The brains and submaxillary salivary glands were rapidly dissected out, and the hippocampuses were dissected from the brains. The dissected tissues were homogenized in a suitable volume of ice-cold phosphate-buffered saline containing 10 mM lithium chloride, pH7.4, using a tissue homogenizer, and used immediately or frozen in aliquots at −80degC. for future use. The concentration of inositol-1-phosphate was determined in the homogenates using the IPOne TR-FRET assay (CisBio cat no 621PAPEB), following the manufacturer's instruction

[2] = test system: hippocampal inositol phosphate signaling pathway; assay: In vivo tissue inositol phosphate signaling pathway activation, hippocampus; parameters: species or system rat; details: 1 mg/kg of 82; antagonist 0.03 mg/kg
Method: as §1

anesthetized rats = assay: Salivation on iontophoretic transdermal delivery of agonist and antagonist from one patch; type: in vivo, rat; details: patch with 1 mg of 82 plus 0.01mg antagonist
Method: Experimental compounds and drug substances were delivered transdermally in rats using iontophoresis as follows. The fur was shaved from the backs of Long Evans Hooded rats weighing 225 to 325 grams, using electric clippers. Experimental compounds and drug substances were formulated at suitable concentrations an aqueous mixture of the following composition:
The polyvinyl alcohol/water was heated to 95 degC. until it became clear, then the other constituents were added and mixed well. The mixture was introduced into suitable molds containing a disc-shaped cavity 2.2 cm diameter and 2.2 mm deep. Molds may be fabricated using two glass sheets separated by a silicone rubber sheet with suitable sized cavities and filling ports cut-outs. The molds were subject to 3 freeze-thaw cycles at −80degC. and 20degC. until a firm cryogel was obtained. The gels were separated from the molds and trimmed into a circular shape. The gel was placed in a silicone rubber casing with one face in contact with a circular silver foil anodic electrode (22 mm dia/250 microns thick), and the assembly was placed on the shaved skin of the rat such that the other face was in contact with the skin on one side of the back of the rat. The rubber casing formed a seal over and around the gel/electrode assembly. […] This was placed on the other side of the shaved back of the rat, the edges of the gel discs being about 20 mm apart at their nearest point. A DC voltage was applied across the two patches from a constant-current DC power supply and the voltage adjusted to obtain the desired current, such that the skin of the animal completed the electrical circuit.
The devices were placed on shaved backs of anesthetized rats and salivation was measured.
The animals were placed slightly head-down on an inclined, heated ramp. Rectal temperature was monitored using a thermocouple and the temperature of the heating pad was adjusted manually to maintain normal body temperature. Saliva was collected from the mouth by absorption onto pre-weighed slips of filter paper. The filter paper was changed periodically and the amount of saliva was measured by weighing the filter paper slips

[3] = test system: pooled male Sprague-Dawley rat liver microsomes; assay: Metabolism by rat liver microsomes; type: in vitro ADME; details: 6 hours incubation
Method: (§2) Compounds were incubated with pooled male Sprague-Dawley rat liver microsomes (BD Biosciences, #452501) and an NADP-regenerating system in a phosphate buffer (pH 7.4) for a total of 6 hours. Aliquots were removed every 2 hours, and 1% formic acid was added to halt the reaction. Samples were centrifuged, filtered through 0.2 micron spinfilter and the amount of each compound in the supernatants was quantitated using LC/MS/MS.

human FMO1 Supersomes = target: T1, human FMO1 Supersomes (Homo sapiens, UniProt Q01740); assay: Metabolism by flavin monoxygenase 1 (FMO1) Supersomes; type: in vitro ADME
T1 construct: purchased BD Biosciences 456241
T1 sequence (Q01740 1-532): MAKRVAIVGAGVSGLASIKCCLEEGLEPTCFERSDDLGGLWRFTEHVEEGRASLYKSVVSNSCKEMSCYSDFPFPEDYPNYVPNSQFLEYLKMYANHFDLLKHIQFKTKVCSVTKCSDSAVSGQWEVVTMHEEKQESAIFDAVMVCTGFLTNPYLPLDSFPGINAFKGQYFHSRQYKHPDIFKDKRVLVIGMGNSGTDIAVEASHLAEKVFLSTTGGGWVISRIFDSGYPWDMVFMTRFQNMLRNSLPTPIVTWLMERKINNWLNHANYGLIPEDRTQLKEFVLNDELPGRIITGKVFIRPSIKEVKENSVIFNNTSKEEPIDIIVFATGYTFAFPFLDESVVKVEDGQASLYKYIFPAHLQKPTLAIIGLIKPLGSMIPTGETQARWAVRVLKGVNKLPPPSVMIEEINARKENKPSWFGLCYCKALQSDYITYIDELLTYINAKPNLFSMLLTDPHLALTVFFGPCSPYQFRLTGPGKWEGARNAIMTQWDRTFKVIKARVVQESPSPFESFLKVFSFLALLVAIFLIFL
Method: […] Aliquots were removed every 10 minutes, and 1% formic acid was added to halt the reaction. Samples were centrifuged, filtered through 0.2 micron spinfilter and the amount of each compound in the supernatants was quantitated using LC/MS/MS.

[4] = target: T2, human muscarinic M1 receptors (Homo sapiens, UniProt P11229); assay: Inositol phosphate production in huM1/A9L cells (IPOne TR-FRET); type: cell-based; details: for huM1/A9L Smax: percentage of maximal stimulation by carbachol; for huM1/A9L ED50 relative to CCh: potency relative to carbachol
T2 construct: expressed in transfected cells; host or cells: A9L cells (gift from Professor W Messer)
T2 sequence (P11229 1-460): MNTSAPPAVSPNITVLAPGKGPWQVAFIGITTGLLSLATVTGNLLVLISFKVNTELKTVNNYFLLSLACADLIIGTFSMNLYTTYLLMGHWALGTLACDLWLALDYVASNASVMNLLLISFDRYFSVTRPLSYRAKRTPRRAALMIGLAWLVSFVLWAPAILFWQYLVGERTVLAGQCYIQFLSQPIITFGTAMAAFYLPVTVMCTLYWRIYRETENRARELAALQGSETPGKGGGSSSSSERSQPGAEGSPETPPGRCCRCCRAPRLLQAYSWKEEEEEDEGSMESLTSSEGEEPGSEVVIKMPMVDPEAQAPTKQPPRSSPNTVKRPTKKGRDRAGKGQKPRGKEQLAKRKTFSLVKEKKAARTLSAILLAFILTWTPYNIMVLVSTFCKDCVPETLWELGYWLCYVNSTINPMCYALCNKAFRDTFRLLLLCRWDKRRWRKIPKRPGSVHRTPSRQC
Method: (§3) Muscarinic M1 and M3 agonist activity was evaluated by measuring the stimulation of inositol phosphate (IP) production in the presence of lithium chloride from A9L cells transfected with expression plasmids containing human muscarinic M1 and M3 receptors, respectively. The cell lines were a gift from Professor W Messer, and the methods were as described in Tejada F R et al. J. Med. Chem. 2006; 49: 7518-31 except that the assay was scaled down to run in 384 well plates, and IP was measured in the cell lysates using the non-isotopic IPOne TR-FRET assay (CIS-BIO, Inc).
(§4) Cells were grown to 90% confluence in 384 well hi-base plates (Greiner Bio-One), compounds were added at suitable concentrations in growth medium containing 10 mM LiCL, buffered with an extra 10 mM HEPES (pH7.4), and incubated for 60 minutes at 37° C. Cells were lysed and assayed for IP following the manufacturer's instructions.
(§5) The value for a full agonist is 100%, while partial agonists give values below 100%.

[5] = target: T3, human muscarinic M3 receptors (Homo sapiens, UniProt P20309); assay: Inositol phosphate production in huM3/A9L cells (IPOne TR-FRET); type: cell-based; details: for huM3/A9L Smax: percentage of maximal stimulation by carbachol; for huM3/A9L ED50 relative to CCh: potency relative to carbachol
T3 construct: expressed in transfected cells; host or cells: A9L cells (gift from Professor W Messer)
T3 sequence (P20309 whole entry): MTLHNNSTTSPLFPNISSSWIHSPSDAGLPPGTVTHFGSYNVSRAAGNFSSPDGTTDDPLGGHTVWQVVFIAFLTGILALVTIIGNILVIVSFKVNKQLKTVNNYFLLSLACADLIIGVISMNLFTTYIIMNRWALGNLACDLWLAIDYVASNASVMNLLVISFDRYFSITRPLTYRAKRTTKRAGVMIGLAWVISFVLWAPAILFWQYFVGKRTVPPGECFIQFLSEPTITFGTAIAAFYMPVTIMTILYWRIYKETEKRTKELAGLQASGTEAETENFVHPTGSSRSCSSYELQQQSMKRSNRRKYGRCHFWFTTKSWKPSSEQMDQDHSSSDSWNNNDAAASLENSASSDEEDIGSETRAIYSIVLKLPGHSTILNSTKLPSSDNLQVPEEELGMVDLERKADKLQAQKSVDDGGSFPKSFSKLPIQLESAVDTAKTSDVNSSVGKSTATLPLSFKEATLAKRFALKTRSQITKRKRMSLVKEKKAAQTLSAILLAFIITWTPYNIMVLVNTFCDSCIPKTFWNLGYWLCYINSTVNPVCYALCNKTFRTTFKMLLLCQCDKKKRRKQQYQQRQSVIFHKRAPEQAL
Method: as §3, §4, §5

[6] = test system: pooled male human liver microsomes; assay: Metabolism by human liver microsomes; type: in vitro ADME; details: for extent of metabolism in human liver microsomes: 6 hours incubation; for rate of metabolism compared with the other enantiomer: human liver microsomes, as also in rat liver microsomes and FMO Supersomes
Method: as §2, with “human” for “Sprague-Dawley rat”, “#452172)” for “#452501)”

[7] = test system: apomorphine induced climbing; assay: Apomorphine induced climbing model of psychosis; type: in vivo, CD-I mice; details: mice, sc
Method: As described in Costall et. al. European Journal of Pharmacology 1978, 50, 39. individual CD-I mice, 1-2 months old, were placed in a cylindrical wire mesh cage (13.2 cm high×13.2 cm diameter) constructed of steel wire 1 mm thick spaced at 1.2 cm^2. Cylinders were placed in a standard OptiMICE mouse cage (29×32×9×29 cm wide and 14 cm high) with adequate wood chip bedding provided. Observations of climbing (defined as 3 or more paws off the ground) were carried out every 5 minutes at a duration of 1 minute for 30 minutes. Animals were injected subcutaneously under isoflurane anesthesia with test compounds, reference compounds, which included clozapine, haloperidol, olanzapine and xanomeline, or PBS as a control. This was followed 5 minutes later by 2 mg/kg apomorphine hydrochloride. All drugs were dissolved in PBS or a mixture of (by volume) 96% PBS and 4% hydroxypropyl-beta-cyclodextrin, and dosed at a rate of 5 ml per kilogram of body weight. Following injections, animals were replaced in the mesh cages and observed for climbing (defined as 3 or more paws off the ground) every 5 minutes for a duration of 1 minute for 60 minutes after dosing.

[8] = antagonist 0.1 mg/kg (oxybutinin or darifenacin)

Row | SMILES | inhibition of salivary gland inositol phosphate response to MCD-386 [1] | reduction of salivation caused by transdermal iontophoretic delivery of 82 (anesthetized rats) | extent of metabolism in rat liver microsomes [3] | huM1/A9L Smax [4] | huM1/A9L ED50 relative to CCh [4] | huM3/A9L Smax [5] | huM3/A9L ED50 relative to CCh [5] | extent of metabolism in human liver microsomes [6] | activity in the apomorphine induced climbing model [7] | also measured
1 | C[N+]1(C)CCC(OC(=O)C(O)(c2ccccc2)C2CCCC2)C1 (stereo not drawn) [glycopyrrolate] | virtually completed inhibited | greatly reduced |  |  |  |  |  |  |  | block of increase in salivary gland inositol phosphate caused by 82 ([1]; antagonist 0.03 mg/kg): can block; block of increase in hippocampal inositol phosphate caused by 82 [2]: without blocking the increase in hippocampal inositol phosphate
2 | [2H]C([2H])([2H])c1noc(C2CCCNC2)n1 (stereo not drawn) [Compound 88, 3-D3-Methyl-5-(piperidin-3-yl)-1,2,4-oxadiazole] |  |  | far more stable than compounds 126 and 127 | 116% | + (potency 2-10x CCh) | 60% | +/− (potency 0.5-2x CCh) | metabolized significantly less in human liver microsomes than in rat liver microsomes | potent and effective | extent of metabolism in FMO Supersomes (human FMO1 Supersomes): less than half metabolized
3 | [2H]C([2H])([2H])c1noc(C2CCCNC2)n1 (single isomer, unassigned) [Compound 89, 3-(methyl-d3)-5-(piperidin-3-yl)-1,2,4-oxadiazole] |  |  | far more stable than compounds 126 and 127 | 90% | + (potency 2-10x CCh) | 86% | +/− (potency 0.5-2x CCh) | metabolized significantly less in human liver microsomes than in rat liver microsomes | potent and effective | rate of metabolism compared with the other enantiomer [6]: metabolized faster than the enantiomers
4 | Cc1noc(C2(F)CCCNC2)n1 (stereo not drawn) [Compound 118, 5-(3-fluoropiperidin-3-yl)-3-methyl-1,2,4-oxadiazole] |  |  |  |  | − (potency <0.5-0.1x CCh) |  | −− (potency <0.1x CCh) |  |  | PAMPA (? × 106) (PAMPA test): 16.3 ? × 106; rate of crossing the lipid layer in the PAMPA test (PAMPA test): highest rate of penetration
5 | CCN(CC)CC#CCOC(=O)C(O)(c1ccccc1)C1CCCCC1 (stereo not drawn) [oxybutinin] | less effective | reduced salivation, but were less effective |  |  |  |  |  |  |  | block of increase in salivary gland inositol phosphate caused by 82 [1, 8]: less effective
6 | Cc1noc(C2CCCNC2)n1 (single isomer, unassigned) [Compound 83, 3-methyl-5-(piperidin-3-yl)-1,2,4-oxadiazole] |  |  | far more stable than compounds 126 and 127 | 147% | +/− (potency 0.5-2x CCh) | 47% | − (potency <0.5-0.1x CCh) | metabolized significantly less in human liver microsomes than in rat liver microsomes | potent and effective | rate of metabolism compared with the other enantiomer [6]: metabolized faster than the enantiomers
7 | CC(C)[N+](C)(CCOC(=O)C1c2ccccc2Oc2ccccc21)C(C)C [propantheline] | virtually completed inhibited | greatly reduced |  |  |  |  |  |  |  | block of increase in salivary gland inositol phosphate caused by 82 ([1]; antagonist 0.03 mg/kg): can block; block of increase in hippocampal inositol phosphate caused by 82 [2]: without blocking the increase in hippocampal inositol phosphate
8 | NC(=O)C(c1ccccc1)(c1ccccc1)[C@@H]1CCN(CCc2ccc3c(c2)CCO3)C1 [darifenacin] | less effective | reduced salivation, but were less effective |  |  |  |  |  |  |  | block of increase in salivary gland inositol phosphate caused by 82 [1, 8]: less effective
